Entries after “also recorded” stand apart in the source; their conditions may differ. Where two headings read alike, the source gives them in different places. Marks after values point to notes of the source that are not given here.
How the values were obtained:
PCAF Brd [1] = molecular target: T1, PCAF Brd (Homo sapiens, UniProt Q92831); experiment: Isothermal titration calorimetry (ITC), PCAF Brd; assay type: binding
T1 construct: Human bromodomains were cloned, expressed and purified as previously described; made in house
T1 sequence (Q92831 723-827 limits assumed): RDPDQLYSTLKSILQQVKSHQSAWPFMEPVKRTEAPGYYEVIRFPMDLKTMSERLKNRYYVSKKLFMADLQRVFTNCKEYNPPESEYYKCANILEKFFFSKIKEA
Experimental: (§1) Isothermal Titration Calorimetry (ITC)
(§2) Experiments were carried out on a Nano-ITC Standard Volume Instrument (TA Instruments). All experiments were carried out at 25 °C in 20 mM HEPES pH 7.5, 150 mM NaCl, 0.5 mM TCEP and 5% glycerol. Protein solutions were buffer exchanged by gel filtration. The titrations were conducted using an initial injection of 2 μL followed by 32 injections of 8 μL. Background dilution heat was substracted from each experiment. Thermodynamic parameters were calculated using ΔG = ΔH-T ΔS = -RTlnKB , where KD = 1/KB. ΔG, ΔH and ΔS are changes in free energy, enathalpy and entropy resepectively. Independent single site binding models were employed in data analysis.
(§3) Supplemental Figure 3. ITC trace of D-Moses and PCAF Brd […]

PCAF Brd [2] = molecular target: T1, PCAF Brd; experiment: Differential scanning fluorimetry (DSF), PCAF Brd; assay type: binding; settings: compound concentration 100 μM
PCAF Brd [3] = molecular target: T1, PCAF Brd; experiment: Differential scanning fluorimetry (DSF), PCAF Brd; assay type: binding; settings: compound concentration 10 μM
Experimental: (§4) Protein Expression and Purification
(§5) Human bromodomains were cloned, expressed and purified as previously described.[1]
(§6) Differential Scanning Fluorimetry (DSF)
(§7) Thermal melting points were recorded using an Mx3005p Real Time PCR Machine (Stratagene).
(§8) Subject proteins were buffered in 10 mM HEPES at pH 7.5, 500 mM NaCl and assayed in a 96-well […]
(§9) plate at a final concentration of 2 μM in 20 μL volume. Compounds were then added to a final […]
(§10) concentration of 10 μM. SPYRO Orange (Molecular Probes) was used as a fluorescent probe at a […]
(§11) dilution of 1:1000. Excitation and emission filters for the SPYRO-Orange dye were set to 465 nm and […]
(§12) 590 nm, respectively. The temperature was raised with a step of 3 °C/min from 25 °C to 96 °C and […]
(§13) fluorescence readings were taken at each interval. Data was analysed as previously described.[2]
(§14) Bromodomain affinity selectivity panel of (S)-11
(§15) Supplemental Figure 1. DSF Selectivity panel of (S)-11 against 48 human Bromodomains. […]
(§16) ┼Mean ΔTm ± SEM (number of measurements= 2). Compound concentration: 10 μM […]
(§17) (1 picture or pasted object on this page, not shown here)

GCN5L2 = molecular target: T2, GCN5L2 (Homo sapiens, UniProt Q92830); experiment: Differential scanning fluorimetry (DSF), GCN5 (GCN5L2) Brd; assay type: binding; settings: compound 10 μM
T2 construct: made in house
T2 sequence (Q92830 728-832 limits assumed): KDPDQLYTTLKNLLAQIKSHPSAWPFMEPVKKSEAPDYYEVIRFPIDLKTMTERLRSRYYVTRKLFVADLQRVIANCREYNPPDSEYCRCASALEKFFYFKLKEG
Experimental: as §4, §5, §6, §7, §8, §9, §10, §11, §12, §13, §14, §15, §16, §17

[4] = molecular target: T3, PCAF‐Brd histone H3.3 interaction (Homo sapiens, UniProt Q92831); experiment: nanoBRET target engagement assay, PCAF-Brd / histone H3.3 in HEK293 cells; assay type: cell-based; settings: live HEK293 cells; compounds 5 μM, 18 h
T3 construct: NanoLuciferase fusion of the isolated bromodomain of PCAF; expressed in transfected cells; host or cells: HEK293
T3 sequence (Q92831 723-827 limits assumed): T1 sequence (Q92831 723-827 limits assumed)
Experimental: page 48: NanoLuciferase Bioluminescent Resonance Energy Transfer (NanoBRET) Assay Methods HEK293 cell (8 x 105) were plated in each well of a 6-well plate and co-transfected with Histone H3.3- HaloTag (NM_002107) and a NanoLuciferase fusion of the isolated bromodomain of PCAF. Twenty hours post-transfection, cells were collected, washed with PBS, and exchanged into media containing phenol red-free DMEM and 4% FBS in the absence (control sample) or the presence (experimental sample) of 100 nM NanoBRET 618 fluorescent ligand (Promega). Cell density was adjusted to 2 x 10^5 cells/ml and then re-plated in a 96-well assay white plate (Corning Costar #3917). […] Readings were performed within 5 minutes using a Glo-MAX Discover instrument (Promega) equipped with 450/8 nm bandpass and 600 nm longpass filters with a 0.3 sec reading setting. A corrected BRET ratio was calculated and is defined as the ratio of the emission at 600 nm/450 nm for experimental samples (i.e. those treated with NanoBRET fluorescent ligand) subtracted by and the emission at 600 nm/450 nm for control samples (not treated with NanoBRET fluorescent ligand). BRET ratios are expressed as milliBRET units (mBU), where 1 mBU corresponds to the corrected BRET ratio multiplied by 1000. […] Compounds were analysed by LC-MS for loss of compound at 0, 5, 15, 30 and 45 minute time points. […]

[5] = Metabolic stability in mouse liver microsomes; assay type: in vitro ADME; settings: mouse, liver microsomes; read-out: t1/2 mouse liver microsomes
Experimental: (§18) In vitro Metabolism Studies
(§19) Metabolic stability studies were carried out exposing nominated compounds to samples of liver microsomes. Compounds were analysed by LC-MS for loss of compound at 0, 5, 15, 30 and 45 minute time points. The rate of metabolic degradation of compounds was used to calculate CLint, SE CLint, t1/2 (summarised in supplemental table 2.)
(§20) Supplemental Table 4. In vitro metabolic stability of compounds DL-45/DL-Moses and 39 Compound Metbolic Stability (Human) Metbolic Stability (Mouse) […]

GST-PCAFBRD = molecular target: T4, GST-PCAFBRD (Homo sapiens, UniProt Q92831); experiment: HTRF assay, displacement of biotinylated compound 46 from GST-PCAF Brd; assay type: binding
T4 construct: Final assay concentrations: GST-PCAFBRD (20 nM)
T4 sequence (Q92831 723-827 limits assumed): T1 sequence (Q92831 723-827 limits assumed)
Experimental: (§21) obtained from 5 healthy donors. PBMC were cultured either with D-Moses or L-Moses at concentrations of 0.1, 1 and 10 μM or with a control (DMSO) for 24 hours. Viability of PBMC were then checked using LIVE/DEAD Fixable Aqua Dead Cell Stain Kit (ThermoFisher Scientific).
(§22) High Throughput Time Resolved Fluorescence Assay (HTRF)
(§23) HTRF assay was carried out using a Cisbio Epigenous kit B (62BDBPEH) using the standard assay protocol with GST-PCAFBRD.[3] Final assay concentrations: GST-PCAFBRD (20 nM), SA-XL665 (62.5 nM), α-GST donor (62.5 nM), compound 46 (500 nM). Ki was calculated using the Cheng-Prussof equation […]
(§24) Recombinant PfGCN5 (bromodomain only) was expressed in E. coli and purified using a previously described system. The protein crystallized with the compound L-45 at 293 K in 0.1M CaCl2, 30% PEG 8k, 0.2 M NH4SO4. The concentrations of the protein sample and the compound were 10 mg/ml […]
(§25) X-ray diffraction data for the crystal was collected at 100 K at the beamline 08ID-1 of the Canadian Macromolecular Crystallography Facility. The dataset was processed using the HKL-2000 suite, and the structure solved using Phaser, a component of the CCP4 suite with molecular replacement model 4QNS. […]

[6] = Metabolic stability in human liver microsomes; assay type: in vitro ADME; settings: human, liver microsomes; read-out: t1/2 human liver microsomes
Experimental: as §18, §19, §20

[7] = system: peripheral blood mononuclear cells (PBMC); experiment: Cytotoxicity in peripheral blood mononuclear cells (PBMC); assay type: cell-based; settings: 10 μM for 24 hours
Experimental: as §21, §22, §23, §24, §25

[8] = Permeability in MDCK-MDR1 cells; assay type: in vitro ADME; settings: dog, direction not given
HGCN5 Brd = molecular target: T5, HGCN5 Brd (Homo sapiens, UniProt Q92830); experiment: Isothermal titration calorimetry (ITC), human GCN5 Brd; assay type: binding
T5 construct: made in house
T5 sequence (Q92830 728-832 limits assumed): T2 sequence (Q92830 728-832 limits assumed)
Experimental: as §1, §2
Supplemental Figure 2. ITC trace of L-Moses and PCAF Brd
as §3

[9] = Supplemental Table 3, compound concentration 30 μM, protein concentration 280-320 μM, read-out: PCAF KD (μM) (ITC)
[10] = Table 1, read-out: K D [μM] (ITC) PCAF Brd

Question: For `Cc1nnc2c3ccccc3c(NCCN(C)C)nn12` [Compound 7], which Kd (PCAF Brd [1]; [9]) is on record?
Answer: 7.98 µM

Question: And the Kd (PCAF Brd [1]; [10])?
Answer: 8 ± 0.65 µM

Question: And the “ΔT m [°C] PCAF (DSF)” value (PCAF Brd [2])?
Answer: 8.5^[b] °C

Question: With `Cc1nnc2c3ccccc3c(NCC3CCCN3C)nn12` (stereo not drawn) [Compound 97] as the molecule, how does the Kd (PCAF Brd [1]; [9]) read?
Answer: 18.2 µM

Question: And the “ΔT m [°C] PCAF (DSF)” value (PCAF Brd [3])?
Answer: 2.8 °C

Question: And the “GCN5L2 ΔTm (°C) (DSF)” value (GCN5L2)?
Answer: 0.9 °C

Question: For `C[C@@H](CN(C)C)Nc1nn2c(C(F)(F)F)nnc2c2ccccc12` [Compound (S)‐17], which Kd (PCAF Brd [1]; [10]) is on record?
Answer: > 30 µM

Question: And the “ΔT m [°C] PCAF (DSF)” value (PCAF Brd [3])?
Answer: 0.65 °C

Question: What about the “ΔT m [°C] PCAF (DSF)” value (PCAF Brd [3]; listed as (S)-17) of the same molecule?
Answer: 0.7 °C

Question: What about the ΔTm at 10 µM (GCN5L2; read-out: GCN5L2 ΔTm (°C) (DSF)) of the same molecule?
Answer: 0.2 °C

Question: Which results are given for `Cc1nnc2c3ccccc3c(NC(C)C(c3ccccc3)N(C)C)nn12` (stereo not drawn) [D‐45]?
Answer: Kd (PCAF Brd [1]; [9]): > 30 µM; K D (nM) (ITC) PCAF Brd (PCAF Brd [1]; Table 2): no observable binding; also recorded: Inactive; displacement of PCAF‐Brd from H3.3 in nanoBRET assay [4]: no effect

Question: Which Kd (PCAF Brd [1]; Table 2, read-out: K D (nM) (ITC) PCAF Brd) does the source give for `Cc1nnc2c3ccccc3c(N[C@@H](C)[C@H](c3ccccc3)N(C)C)nn12` [L‐45] here?
Answer: 0.126 ± 0.015 µM

Question: And the half-life [5]?
Answer: 38 min

Question: And the Ki (GST-PCAFBRD)?
Answer: 0.047 µM

Question: What about the half-life [6] of the same molecule?
Answer: 40 min

Question: What about the “displacement of PCAF‐Brd from H3.3 in nanoBRET assay” value [4] of the same molecule?
Answer: single digit μM concentration

Question: What about the “cytotoxicity in PBMC” value [7] of the same molecule?
Answer: no observable cytotoxicity

Question: And the Papp ([8]; MDCK-MDR1, first of 59/70, read-out: MDCK-MDR1 permeability, first value of the pair)?
Answer: 59 ×10⁻⁶ cm/s

Question: And the Papp ([8]; MDCK-MDR1, second of 59/70, read-out: MDCK-MDR1 permeability, second value of the pair)?
Answer: 70 ×10⁻⁶ cm/s

Question: And the “GCN5L2 ΔTm (°C) (DSF)” value (GCN5L2; 10 µM)?
Answer: +3.6 °C

Question: And the Kd (HGCN5 Brd)?
Answer: 0.55 µM

Question: For `Cc1nnc2c3ccccc3c(NCC(NCCCCNC(=O)CCOCCOCCOCCOCCNC(=O)CCCCC3SCC4NC(=O)NC43)c3ccccc3)nn12` (stereo not drawn) [compound 46, reference compound], which Kd (GST-PCAFBRD; GST-PCAF Brd, read-out: KD of compound 46 used for Cheng-Prusoff) is on record?
Answer: 0.4 µM

From paper PMC5412877, “Discovery of a PCAF Bromodomain Chemical Probe” (Angewandte Chemie (International Ed. in English), 2016)
